Reference: article PMC8662641, “Site-Specific Labeling of Endogenous Proteins Using CoLDR Chemistry” (Journal of the American Chemical Society, 2021)

Experiments:
primary mouse B cells = assay: B-cell response experiment (CD86 after anti-IgM); format: cell-based; conditions: 24 h treatment, 1–1000 nM
Procedure: Splenic cells from C57BL/6 mice were isolated by forcing spleen tissue through the mesh into PBS containing 2% fetal calf serum and 1 mM EDTA, and red blood cells were depleted by lysis buffer. […] Following a 24 h incubation, cells were stimulated with anti-IgM overnight (5 μg/mL, Sigma-Aldrich). […] Single-cell suspensions were analyzed by a flow cytometer (CytoFlex, Beckman Coulter).

BTK [1] = molecular target: T1, BTK (Homo sapiens, UniProt Q06187); assay: In-gel fluorescence labeling profile in Mino cells; conditions: 2 h incubation, in-gel fluorescence
BTK kinase domain = BTK kinase domain (Homo sapiens, UniProt Q06187); assay: MS/MS site-of-labeling analysis of BTK tryptic peptides; format: binding; design: BTK kinase domain was expressed and purified as previously reported; made in house
Procedure: 100 μl of 5 μM Recombinant BTK kinase domain was incubated in 20 mM Tris with 50 μM of 1b or DMSO. The compounds were then removed by methanol-chloroform (400 μL MeOH+100 μL CHCl3+300 μL H2O) precipitation of the protein. The dry pellet was dissolved in 50 μl of 50 mM Tris pH 8 + 5% SDS and heated to 95 °C for 6 min. The concentration of the protein was estimated using BCA assay (using BSA as the standard). 2 μg each sample were diluted to 15 μl with Tris 50 mM pH 8 + 5% SDS, reduced with DTT (0.75 μl of 0.1 M in 5% SDS/Tris 50 mM pH 8, 45 min 65 °C), cooled to room temperature, then alkylated with 0.75 μl of 0.2 M iodoacetamide in water (30 min room temperature in the dark). The protein was then isolated and trypsinized on s-traps (Protifi) according to the manufacturer's instructions. Triplicates were prepared for each […]
ULC/MS grade solvents were used for all chromatographic steps. Each sample was loaded using split-less nano-Ultra Performance Liquid Chromatography (10 kpsi nanoAcquity; Waters, Milford, MA, USA). The mobile phase was: A) H2O + 0.1% formic acid and B) acetonitrile + 0.1% formic acid. Desalting of the samples was performed online using a reversed-phase Symmetry C18 trapping column (180 µm internal diameter, 20 mm length, 5 µm particle size; Waters). The peptides were then separated using a T3 HSS nano-column (75 µm internal diameter, 250 mm length, 1.8 µm particle size; Waters) at 0.35 µL/min. Peptides were eluted from the column into the mass spectrometer using the following gradient: 4% to 30%B in 155 min, 35% to 90%B in 5 min, maintained at 90% for 5 min and then back to initial conditions.
The nanoUPLC was coupled online through a nanoESI emitter (10 μm tip; New Objective; Woburn, MA, USA) to a quadrupole orbitrap mass spectrometer (Q Exactive HFX, Thermo Scientific) using a FlexIon nanospray apparatus (Proxeon).
Data was acquired in data dependent acquisition (DDA) mode, using a Top10 method. MS1 […]
maximum injection time was set to 60msec. MS2 resolution was set to 15,000, quadrupole isolation 1.7 m/z, AGC of 1e5, dynamic exclusion of 45 sec and maximum injection time of 60 […]
Analysis was done using MaxQuant 1.6.3.4. The sequence of BTK was used for the analysis. The digestion enzyme was set to Trypsin with a maximum number of missed cleavages of 0.
Carbamidomethyl and the modification by the molecule were included as variable modifications on cysteine. The “Re-quantify” option was enabled. Contaminants were included. Peptides were searched with a minimum peptide length of 7 and a maximum peptide mass of 4,500 Da. “Second peptides” were enabled and “Dependent peptides” were disabled. The option “Match between runs” was enabled with a Match time window of 0.7 min and an alignment window of 20 min. An FDR of 0.01 was used for Protein FDR, PSM FDR and XPSM FDR. The triplicate measured for each compound (or for DMSO-treated protein) was analyzed separately.
Following MaxQuant analysis, only fully cleaved peptides were quantified and cysteine-containing peptides that were not modified by either iodoacetamide or compound were ignored.
The intensity for each peptide was calculated as the average of the three triplicates. If the intensity was zero for one of the replicates the peptide was ignored. The intensities for the non-cysteine containing peptides were averaged for each data set and used to normalize the intensity of cysteine-containing peptides. Estimation of the extent of labeling of cysteine-containing peptides in the sequence was done by comparing the intensity of carbamidomethyl-modified peptides between the DMSO and molecule-treated samples. MS/MS spectra for the carbamidomethyl-modified and molecule modified peptides were extracted using Skyline. […]
The obtained

BTK [2] = molecular target: T1, BTK; assay: BTK activity in Mino cells (autophosphorylation); format: cell-based; design: We incubated Mino B cells with probes containing different tags; endogenous in cells; host or cells: Mino cells; conditions: Mino cells, 1 h; 100 nM probes, 1 μM ibrutinib or Ibr-H
Procedure: The cells were harvested, and immunoblots of phospho-BTK, total-BTK, and β-actin were performed.
Cell pellets were washed with ice-cold PBS and lysed using RIPA buffer (Sigma, R0278). […] Samples containing 50 μg of total protein were prepared with 4× LDS sample buffer (NuPAGE, Thermo Fischer Scientific, NP0007) and were then resolved on a 4–20% Bis-Tris gel (GeneScript SurePAGE, M00657). […] The EZ-ECL kit (Biological Industries, 20-500-1000) was used to detect HRP activity.

BTK kinase domain, sequence (Q06187 402-655 limits assumed): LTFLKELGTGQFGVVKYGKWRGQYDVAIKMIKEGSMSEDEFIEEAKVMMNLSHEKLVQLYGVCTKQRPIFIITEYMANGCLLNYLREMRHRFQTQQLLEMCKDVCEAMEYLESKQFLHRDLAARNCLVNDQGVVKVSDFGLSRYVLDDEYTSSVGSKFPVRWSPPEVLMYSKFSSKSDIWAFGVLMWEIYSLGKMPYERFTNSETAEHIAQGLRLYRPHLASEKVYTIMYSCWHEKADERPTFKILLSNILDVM
T1 sequence (Q06187 whole entry, the tested form may be a part): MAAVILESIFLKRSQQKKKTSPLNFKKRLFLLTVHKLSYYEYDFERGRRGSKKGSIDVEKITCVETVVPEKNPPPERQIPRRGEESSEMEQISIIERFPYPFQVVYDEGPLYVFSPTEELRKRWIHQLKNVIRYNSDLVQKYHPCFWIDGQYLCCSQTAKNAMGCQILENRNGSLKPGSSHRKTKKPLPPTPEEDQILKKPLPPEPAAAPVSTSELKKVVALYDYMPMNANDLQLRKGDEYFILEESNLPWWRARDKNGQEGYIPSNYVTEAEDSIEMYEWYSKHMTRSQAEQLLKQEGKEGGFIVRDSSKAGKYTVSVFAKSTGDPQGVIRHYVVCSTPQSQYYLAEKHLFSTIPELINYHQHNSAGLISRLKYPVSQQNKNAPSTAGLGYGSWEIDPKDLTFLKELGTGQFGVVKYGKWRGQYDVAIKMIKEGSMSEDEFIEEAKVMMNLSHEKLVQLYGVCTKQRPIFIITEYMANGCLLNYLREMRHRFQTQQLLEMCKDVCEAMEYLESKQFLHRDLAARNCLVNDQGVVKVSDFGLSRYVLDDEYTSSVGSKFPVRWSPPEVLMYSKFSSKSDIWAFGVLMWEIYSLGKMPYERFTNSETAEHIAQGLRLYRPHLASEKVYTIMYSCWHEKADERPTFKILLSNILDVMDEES

site of modification on BTK (BTK kinase domain; LC/MS/MS of tryptic peptides): Cys481
1b/DMSO ratio after correction (BTK kinase domain; iodoacetamide labeled peptide 457-466 LVQLYGVCTK): 0.891
1b/DMSO ratio after correction (BTK kinase domain; iodoacetamide labeled peptide 467-487 QRPIFIITEYMANGCLLNYLR): 0.092
1b/DMSO ratio after correction (BTK kinase domain; iodoacetamide labeled peptide 493-503 FQTQQLLEMCK): 0.469
1b/DMSO ratio after correction (BTK kinase domain; iodoacetamide labeled peptide 504-515 DVCEAMEYLESK): 0.413
1b/DMSO ratio after correction (BTK kinase domain; iodoacetamide labeled peptide 526-536 NCLVNDQGVVK): 0.724
1b/DMSO ratio after correction (BTK kinase domain; iodoacetamide labeled peptide 626-637 VYTIMYSCWHEK): 0.735
BTK autophosphorylation after anti-IgM (BTK [2]): BTK remained active after labeling
SMILES: C#CCCNC(=O)C(=C)CN1CCC[C@@H](n2nc(-c3ccc(Oc4ccccc4)cc3)c3c(N)ncnc32)C1 [1b]
B cell activation (CD86 expression) after anti-IgM (primary mouse B cells): did not inhibit the activation of B cells
labeling of BTK in live Mino cells (BTK [1]): robust labeling even at a concentration of 10 nM
